The source of these data is article PMC7904827 (Scientific Reports, 2021).

Structures can show the parent of a compound that is named as a salt.

Details of series [1]: method as in PMID 29273587. The conditions noted are these: ADR-925 formed in vivo from DEX, rabbit; cited from earlier work.
The test system of series [2] is neonatal ventricular cardiomyocytes (NVCMs). Briefly: In vitro cardioprotection bioassay against daunorubicin toxicity (LDH release). The series is classed as cell-based, rat. The conditions noted are these: 3 h preincubation, DAU 1.2 µM, LDH release after 48 h. How it is done:
NVCMs were isolated in-house from 1- to 3-day-old Wistar rats as described previously. The use of animals and experimental protocols were approved by Charles University, Faculty of Pharmacy Animal Welfare Committee. All experiments were performed in accordance with Directive 2010/63/EU on the Protection of Animals Used for Scientific Purposes and in compliance with Animal Research: Reporting of In Vivo Experiments (ARRIVE) guidelines. Newly isolated cardiomyocytes were left for 40 h to form a monolayer of spontaneously beating cardiomyocytes in seeding medium (DMEM/F12 supplemented with 10% HS, 5% FBS, 4% PYR and 1% P/S), which was then replaced with culture medium (DMEM/F12 supplemented with 5% FBS, 4% PYR and 1% P/S). The medium was replaced again after 24 h for new culture medium.
(§1) After 3 h, DAU solution (1.2 µM) was added to the media. After another 3 h, the medium was replaced with new (drug-free) exposure medium, and the cardiomyocytes were then kept until the end of the experiment. In addition to cytoprotective properties, the toxicity of the studied agent was also examined; this experiment was performed as described above with only the DAU addition step omitted.
(§2) Forty-five hours after the last medium exchange, a sample of medium was taken from each well to assess lactate dehydrogenase (LDH) activity[27]–[29]. For details, see the Supplementary material.
(§3) 1.5 LDH activity evaluation
(§4) The control wells were treated with lysis buffer (0.1 M potassium phosphate, 1% Triton
(§5) X-100, 1 mM DTT, 2 mM EDTA; pH 7.8; 15 min; room temperature) to measure the total
(§6) cellular LDH level (sum of the activity in the control medium and the lysate). The activity of
(§7) LDH was assayed in Tris-HCl buffer (pH 8.9) containing 35 mM sodium lactate and 5 mM
(§8) NAD+. The rate of NAD+ reduction was monitored spectrophotometrically at 340 nm for 2 min.
(§9) The slope of the linear region and molar absorption coefficient e = 6.22*10 3 M/cm were used
(§10) to calculate the LDH activity, and the data were expressed as a percentage of total L DH activity. […]
(Release of lactate dehydrogenase indicates damage to the cell membrane.)

Series [3] can be described thus: Approximate solubility in distilled water at room temperature. The series is classed as physicochemical. To be noted: distilled water, room temperature. How it is done: The syntheses of the target prodrugs were performed according to a known three-step procedure with some modifications. Target prodrugs GK-667, GK-678 and GK-691 were obtained in 34%, 37% and 17% overall yields, respectively. […] The resulting solutions remained physically stable for at least two hours at room temperature.

A short description of series [4]: ICRF-193 release from the prodrugs during incubation in DMEM (thermomixer, UHPLC-MS/MS). The conditions noted are these: 100 µM, 37 °C. The format is in vitro ADME. How it is done:
All samples were spiked with the internal standards. DMEM or buffer (100 μL) was diluted with an ice-cold methanol/water mixture (20:80, v/v), mixed and analyzed. Plasma (50 μL) was precipitated with ice-cold methanol (1:5, v/v), mixed (20 s) and centrifuged (10 min, 10,000 rpm, 4 °C). NVCM pellets (4.8 × 10^6 cells) were precipitated with ice-cold methanol (250 μL), mixed (20 s), sonicated in a cold ultrasonic bath (75 s), mixed (30 s) and centrifuged (10 min, 10,000 rpm, 4 °C). The supernatants from the plasma and NVCM extractions were filtered (0.22 μm, PVDF) prior to analysis. For assay of the prodrugs, the samples were acidified with formic acid to a final concentration of 0.5%.
The samples were analyzed using two UHPLC instruments both coupled to a triple quadrupole mass spectrometer. […] Positive ionization mode was used in both methods. The analytical columns tested are characterized in the Supplementary materials.
The prodrugs (100 μM) were incubated (37 °C) in DMEM in a thermomixer (Thermomixer Comfort, Eppendorf, Germany) under gentle mixing (350 rpm) for 48 h.
From all of the above described experiments, samples were taken at predefined intervals, treated and immediately analyzed. All experiments were performed in four replicates, and the results are expressed as the mean ± SD.

In series [5] the test system is neonatal ventricular cardiomyocytes (NVCMs). In words: Toxicity of the prodrugs alone in NVCMs (LDH release). The series is classed as cell-based, rat. To be noted: prodrug alone 1–100 µM, NVCMs; n.s. or c in Fig. S2. Further details: key to LDH release, statistical significance compared to control: c - compared to control; P ≤ 0.01. How it is done:
as §1, §2, §3, §4, §5, §6, §7, §8, §9, §10

As to `C[C@@H](CN(CC(N)=O)CC(=O)O)N(CC(N)=O)CC(=O)O` [ADR-925], the half-life of elimination in series [1] is given as 2.9 h.
For the compound `C[C@H](N)C(=O)OCN1C(=O)CN([C@H](C)[C@H](C)N2CC(=O)N(COC(=O)[C@H](C)N)C(=O)C2)CC1=O` [GK-678, meso-2,3-bis(4-((S)-2-aminopropionyloxymethyl)-3,5-dioxopiperazin-1-yl)butane tetrahydrochloride], the “lowest concentration with significant protection against DAU-induced toxicity” value in series [2] is 3 µM. Besides, in series [3], the solubility was approximately 20 mg/mL. Also, the “prodrug degradation in DMEM” value in series [4] was “fastest degradation”. The “AUC0–3 h of ICRF-193 concentrations” value in series [4] (GK-667 compared with GK-678) is given as “no statistically significant differences”. For the same compound, the “LDH release, statistical significance compared to control” value in series [5] is listed as “n.s”.
In the case of `C[C@H]([C@H](C)N1CC(=O)N(COC(=O)[C@@H](N)Cc2ccccc2)C(=O)C1)N1CC(=O)N(COC(=O)[C@@H](N)Cc2ccccc2)C(=O)C1` [GK-691, meso-2,3-bis(4-((S)-2-amino-3-phenylpropionyloxymethyl)-3,5-dioxopiperazin-1-yl)butane tetrahydrochloride], in series [2], the “lowest concentration with significant protection against DAU-induced toxicity” value is recorded as 3 µM. In addition, the solubility in series [3] is approximately 10 mg/mL. In addition, the “LDH release, statistical significance compared to control” value in series [5] is “c”.

In general, solubility refers to how much of the substance goes into solution per volume.
